Reference: patent publication US20100298141A1, “SUBSTITUTED PYRIDINE N-OXIDE HERBICIDES” (E. I. DU PONT DE NEMOURS AND COMPANY, priority 2007, published 2010)

Columns and labels:
Assay in all cases: Test F preemergence test
bermudagrass = type: in vivo, Cynodon dactylon; details: scale 0 to 100
Method in brief: (§1)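 Compounds in a non-phytotoxic solvent formulation with surfactant were applied before emergence after sowing, or, for sugarcane, also postemergence. Evaluation was visual, against controls, after 14 to 21 greenhouse days.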

Surinam grass = type: in vivo, Brachiaria decumbens; details: scale 0 to 100
Method in brief: as §1

large crabgrass = type: in vivo, Digitaria sanguinalis; details: scale 0 to 100
Method in brief: as §1

goosegrass = type: in vivo, Eleusine indica; details: scale 0 to 100
Method in brief: as §1

johnsongrass = type: in vivo, Sorghum halepense; details: scale 0 to 100
Method in brief: as §1

kochia = type: in vivo, Kochia scoparia; details: scale 0 to 100
Method in brief: as §1

pitted morningglory = type: in vivo, Ipomoea lacunosa; details: scale 0 to 100
Method in brief: as §1

common ragweed = type: in vivo, Ambrosia elation; details: scale 0 to 100
Method in brief: as §1

mustard = type: in vivo, Brassica nigra; details: scale 0 to 100
Method in brief: as §1

guineagrass = type: in vivo, Panicum maximum; details: scale 0 to 100
Method in brief: as §1

dallisgrass = type: in vivo, Paspalum dilatatum; details: scale 0 to 100
Method in brief: as §1

barnyardgrass = type: in vivo, Echinochloa crus-galli
Method in brief: as §1

prickly sida = type: in vivo, Sida spinosa; details: scale 0 to 100
Method in brief: as §1

Italian ryegrass = type: in vivo, Lolium multiflorum; details: scale 0 to 100
Method in brief: as §1

common purslane = type: in vivo, Portulaca oleracea; details: scale 0 to 100
Method in brief: as §1

broadleaf signalgrass = type: in vivo, Brachiaria platyphylla; details: scale 0 to 100
Method in brief: as §1

common groundsel = type: in vivo, Senecio vulgaris; details: 125 g ai/ha, preemergence, scale 0 to 100
Method in brief: as §1

Virginia dayflower = type: in vivo, Commelina virginica; details: scale 0 to 100
Method in brief: as §1

naked crabgrass = type: in vivo, Digitaria nuda; details: scale 0 to 100
Method in brief: as §1

itchgrass = type: in vivo, Rottboellia cochinchinensis; details: scale 0 to 100
Method in brief: as §1

quackgrass = type: in vivo, Elytrigia repens; details: scale 0 to 100
Method in brief: as §1

Compound: CC(c1c(C(F)(F)F)nn(C)c1OCC(F)(F)F)S(=O)(=O)c1cccc[n+]1[O-] (racemic) [Compound 33]
- Plant response rating, Bermudagrass (bermudagrass; 16 g ai/ha, preemergence): 40
- Bermudagrass plant response rating (bermudagrass; 62 g ai/ha, Preemergence): 70
- Bermudagrass plant response rating (bermudagrass; 125 g ai/ha, preemergence): 100
- Plant response rating, Bermudagrass (bermudagrass; Preemergence, 31 g ai/ha): 60
- Plant response rating, Surinam Grass (Surinam grass; 16 g ai/ha, preemergence): 20
- Surinam Grass plant response rating (Surinam grass; 125 g ai/ha, preemergence): 100
- Plant response rating, Surinam Grass (Surinam grass; Preemergence, 31 g ai/ha): 100
- Plant response rating, Crabgrass, Large (large crabgrass; 16 g ai/ha, preemergence): 15
- Crabgrass, Large plant response rating (large crabgrass; 62 g ai/ha, Preemergence): 85
- Crabgrass, Large plant response rating (large crabgrass; 125 g ai/ha, preemergence): 100
- Plant response rating, Crabgrass, Large (large crabgrass; Preemergence, 31 g ai/ha): 35
- Plant response rating, Goosegrass (goosegrass; 16 g ai/ha, preemergence): 60
- Goosegrass plant response rating (goosegrass; 62 g ai/ha, Preemergence): 98
- Goosegrass plant response rating (goosegrass; 125 g ai/ha, preemergence): 100
- Plant response rating, Goosegrass (goosegrass; Preemergence, 31 g ai/ha): 95
- Plant response rating, Johnsongrass (johnsongrass; 16 g ai/ha, preemergence): 30
- Johnsongrass plant response rating (johnsongrass; 62 g ai/ha, Preemergence): 100
- Johnsongrass plant response rating (johnsongrass; 125 g ai/ha, preemergence): 100
- Plant response rating, Johnsongrass (johnsongrass; Preemergence, 31 g ai/ha): 60
- Plant response rating, Kochia (kochia; 16 g ai/ha, preemergence): 0
- Kochia plant response rating (kochia; 62 g ai/ha, Preemergence): 70
- Kochia plant response rating (kochia; 125 g ai/ha, preemergence): 100
- Plant response rating, Kochia (kochia; Preemergence, 31 g ai/ha): 50
- Plant response rating, Morningglory (pitted morningglory; 16 g ai/ha, preemergence): 0
- Morningglory plant response rating (pitted morningglory; 62 g ai/ha, Preemergence): 98
- Morningglory plant response rating (pitted morningglory; 125 g ai/ha, preemergence): 100
- Plant response rating, Morningglory (pitted morningglory; Preemergence, 31 g ai/ha): 15
- Plant response rating, Ragweed (common ragweed; 16 g ai/ha, preemergence): 20
- Ragweed plant response rating (common ragweed; 125 g ai/ha, preemergence): 75
- Plant response rating, Ragweed (common ragweed; Preemergence, 62 g ai/ha): 60
- Plant response rating, Ragweed (common ragweed; Preemergence, 31 g ai/ha): 40
- Plant response rating, Black Mustard (mustard; 16 g ai/ha, preemergence): 10
- Black Mustard plant response rating (mustard; 62 g ai/ha, Preemergence): 100
- Black Mustard plant response rating (mustard; 125 g ai/ha, preemergence): 100
- Plant response rating, Black Mustard (mustard; Preemergence, 31 g ai/ha): 65
- Plant response rating, Guineagrass (guineagrass; 16 g ai/ha, preemergence): 70
- Guineagrass plant response rating (guineagrass; 62 g ai/ha, Preemergence): 100
- Guineagrass plant response rating (guineagrass; 125 g ai/ha, preemergence): 100
- Plant response rating, Guineagrass (guineagrass; Preemergence, 31 g ai/ha): 100
- Plant response rating, Dallisgrass (dallisgrass; 16 g ai/ha, preemergence): 30
- Dallisgrass plant response rating (dallisgrass; 62 g ai/ha, Preemergence): 80
- Dallisgrass plant response rating (dallisgrass; 125 g ai/ha, preemergence): 100
- Plant response rating, Dallisgrass (dallisgrass; Preemergence, 31 g ai/ha): 65
- Plant response rating, Barnyardgrass (barnyardgrass; 16 g ai/ha, preemergence, scale 0 to 100 (0 no effect, 100 complete control)): 100
- Barnyardgrass plant response rating (barnyardgrass; 62 g ai/ha, Preemergence, scale 0 to 100): 100
- Barnyardgrass plant response rating (barnyardgrass; 125 g ai/ha, preemergence, scale 0 to 100): 100
- Plant response rating, Barnyardgrass (barnyardgrass; Preemergence, 31 g ai/ha, scale 0 to 100): 100
- Plant response rating, Prickly Sida (prickly sida; 16 g ai/ha, preemergence): 25
- Prickly Sida plant response rating (prickly sida; 62 g ai/ha, Preemergence): 90
- Prickly Sida plant response rating (prickly sida; 125 g ai/ha, preemergence): 100
- Plant response rating, Prickly Sida (prickly sida; Preemergence, 31 g ai/ha): 90
- Plant response rating, Ryegrass, Italian (Italian ryegrass; 16 g ai/ha, preemergence): 60
- Ryegrass, Italian plant response rating (Italian ryegrass; 125 g ai/ha, preemergence): 100
- Plant response rating, Ryegrass, Italian (Italian ryegrass; Preemergence, 62 g ai/ha): 100
- Plant response rating, Ryegrass, Italian (Italian ryegrass; Preemergence, 31 g ai/ha): 100
- Plant response rating, Purslane (common purslane; 16 g ai/ha, preemergence): 0
- Purslane plant response rating (common purslane; 62 g ai/ha, Preemergence): 65
- Purslane plant response rating (common purslane; 125 g ai/ha, preemergence): 100
- Plant response rating, Purslane (common purslane; Preemergence, 31 g ai/ha): 20
- Plant response rating, Signalgrass (broadleaf signalgrass; 16 g ai/ha, preemergence): 15
- Signalgrass plant response rating (broadleaf signalgrass; 125 g ai/ha, preemergence): 80
- Plant response rating, Signalgrass (broadleaf signalgrass; Preemergence, 62 g ai/ha): 75
- Plant response rating, Signalgrass (broadleaf signalgrass; Preemergence, 31 g ai/ha): 35
- Groundsel plant response rating (common groundsel): 100
- Plant response rating, Dayflower (Virginia dayflower; 16 g ai/ha, preemergence): 60
- Dayflower plant response rating (Virginia dayflower; 62 g ai/ha, Preemergence): 98
- Dayflower plant response rating (Virginia dayflower; 125 g ai/ha, preemergence): 100
- Plant response rating, Dayflower (Virginia dayflower; Preemergence, 31 g ai/ha): 90
- Plant response rating, Crabgrass, Naked (naked crabgrass; 16 g ai/ha, preemergence): 75
- Crabgrass, Naked plant response rating (naked crabgrass; 62 g ai/ha, Preemergence): 100
- Crabgrass, Naked plant response rating (naked crabgrass; 125 g ai/ha, preemergence): 100
- Plant response rating, Itchgrass (itchgrass; 16 g ai/ha, preemergence): 25
- Itchgrass plant response rating (itchgrass; 62 g ai/ha, Preemergence): 80
- Itchgrass plant response rating (itchgrass; 125 g ai/ha, preemergence): 100
- Plant response rating, Itchgrass (itchgrass; Preemergence, 31 g ai/ha): 40
- Plant response rating, Quackgrass (quackgrass; 16 g ai/ha, preemergence): 0
- Quackgrass plant response rating (quackgrass; 62 g ai/ha, Preemergence): 75
- Quackgrass plant response rating (quackgrass; 125 g ai/ha, preemergence): 95
- Plant response rating, Quackgrass (quackgrass; Preemergence, 31 g ai/ha): 25
